According to ChEMBL document CHEMBL1126104, “Synthesis and antiviral activity of some new S-adenosyl-L-homocysteine derivatives” (1992):
Converted amounts (≈) assume the structure as drawn.

Tests used:
Human alphaherpesvirus 1 = test: Antiviral activity against HSV-1(KOS) strain in primary rabbit kidney (PRK) / embryonic skin-muscle (E6SM) fibroblast culture lines; format: functional; conditions: Human alphaherpesvirus 1, Muscle tissue
Human respirovirus 3 = test: Antiviral activity against parainfluenza virus type 3 in Vero cell culture lines; format: functional
[1] = system: Vesicular stomatitis virus; test: Antiviral activity against vesicular stomatitis virus (VSV) in HeLa cell culture lines,; format: functional
Vaccinia virus = test: Antiviral activity against vaccinia virus (VV) in primary rabbit kidney (PRK) / embryonic skin-muscle (E6SM) fibroblast culture lines; format: functional; conditions: Orthopoxvirus vaccinia, Muscle tissue
[2] = system: Human immunodeficiency virus 1; test: Antiviral activity against (HIV-1) in MT-4 cells Value in parentheses is inhibitory concentration for cell growth (MT-4); format: functional, MT4
[3] = system: Mammalian orthoreovirus 1; test: Antiviral activity against reovirus type 1 in Vero cell culture lines; format: functional
Sindbis virus = test: Antiviral activity against sindbis virus in Vero cell culture lines; format: functional
Coxsackievirus B4 [4] = test: Antiviral activity against coxsackie B4 virus in HeLa cell culture lines; format: functional; conditions: Enterovirus B
Human alphaherpesvirus 2 = test: Antiviral activity against HSV-2(G) strain in primary rabbit kidney (PRK) / embryonic skin-muscle (E6SM) fibroblast culture lines; format: functional; conditions: Human alphaherpesvirus 2, Muscle tissue
Semliki Forest virus = test: Antiviral activity against semliki forest virus (SFV) in Vero cell culture lines; format: functional
Poliovirus 1 = test: Antiviral activity against polio virus type 1 in HeLa cell culture lines; format: functional; conditions: Enterovirus C
Coxsackievirus B4 [5] = test: Antiviral activity against coxsackie B4 in Vero cell culture lines; format: functional; conditions: Enterovirus B
[6] = system: Vesicular stomatitis virus; test: Antiviral activity against vesicular stomatitis virus (VSV) in primary rabbit kidney (PRK) / embryonic skin-muscle (E6SM) fibroblast culture lines; format: functional; conditions: Muscle tissue

| Structure (SMILES) | MIC (Human alphaherpesvirus 1) | MIC (Human respirovirus 3) | MIC [1] | MIC (Vaccinia virus) | MIC [2] | MIC [3] | MIC (Sindbis virus) | MIC (Coxsackievirus B4 [4]) | MIC (Human alphaherpesvirus 2) | MIC (Semliki Forest virus) | MIC (Poliovirus 1) | MIC (Coxsackievirus B4 [5]) | MIC [6] |
| --- | --- | --- | --- | --- | --- | --- | --- | --- | --- | --- | --- | --- | --- |
| Nc1nccc2c1ncn2[C@@H]1O[C@H](CO)C[C@H]1O | > 100 µg/mL | > 100 µg/mL | > 40 µg/mL | > 40 µg/mL | > 20 µg/mL | > 100 µg/mL | > 100 µg/mL | > 40 µg/mL | 70 µg/mL (≈ 280 µM) | > 100 µg/mL | > 40 µg/mL | > 100 µg/mL | > 100 µg/mL |
| Nc1ncnc2c1CCN2[C@@H]1O[C@H](CO)C[C@H]1O | > 10 µg/mL | 7 µg/mL (≈ 27.7 µM) | > 10 µg/mL | 7 µg/mL (≈ 27.7 µM) |  | 4 µg/mL (≈ 15.9 µM) | 30 µg/mL (≈ 119 µM) | 7 µg/mL (≈ 27.7 µM) | 7 µg/mL (≈ 27.7 µM) | > 40 µg/mL | 7 µg/mL (≈ 27.7 µM) | 7 µg/mL (≈ 27.7 µM) | > 10 µg/mL |
| Nc1ncnc2c([C@@H]3O[C@H](CO)C[C@H]3O)n[nH]c12 | > 400 µg/mL | 300 µg/mL (≈ 1190 µM) | > 400 µg/mL | > 400 µg/mL | > 100 µg/mL | > 200 µg/mL | > 400 µg/mL | > 400 µg/mL | > 400 µg/mL | > 400 µg/mL | > 400 µg/mL | > 200 µg/mL | > 400 µg/mL |
| Nc1ncnc2c1CCN2[C@@H]1O[C@H](CSCCC(N)C(=O)O)C[C@H]1O (stereo partly specified) | > 100 µg/mL | 100 µg/mL (≈ 271 µM) | 20 µg/mL (≈ 54.1 µM) | 2 µg/mL (≈ 5.41 µM) |  | 70 µg/mL (≈ 189 µM) | > 200 µg/mL | > 200 µg/mL | > 100 µg/mL | > 200 µg/mL | > 200 µg/mL | > 200 µg/mL | 20 µg/mL (≈ 54.1 µM) |
| Nc1nccc2c1ncn2[C@@H]1O[C@H](CO)[C@@H](O)[C@H]1O | > 400 µg/mL | 0.4 µg/mL (≈ 1.5 µM) | > 2 µg/mL | 1 µg/mL (≈ 3.76 µM) |  | 0.4 µg/mL (≈ 1.5 µM) | 70 µg/mL (≈ 263 µM) | > 400 µg/mL | 100 µg/mL (≈ 376 µM) | > 400 µg/mL | > 400 µg/mL | > 200 µg/mL | 0.7 µg/mL (≈ 2.63 µM) |
| CCCOC(=O)C(CCSC[C@H]1OC(n2ccc3c(N)ncnc32)[C@H](O)[C@@H]1O)NC(=O)COC (stereo partly specified) | 20 µg/mL (≈ 40.2 µM) | 20 µg/mL (≈ 40.2 µM) | > 20 µg/mL | 4 µg/mL (≈ 8.04 µM) | 0.8 µg/mL (≈ 1.61 µM) | > 30 µg/mL | > 40 µg/mL | 100 µg/mL (≈ 201 µM) | 10 µg/mL (≈ 20.1 µM) | > 70 µg/mL | 100 µg/mL (≈ 201 µM) | 15 µg/mL (≈ 30.1 µM) | 2 µg/mL (≈ 4.02 µM) |
| CC(C)(C)C(=O)ONC(CCSC[C@H]1OC(n2ccc3c(N)ncnc32)[C@H](O)[C@@H]1O)C(=O)OCC[Si](C)(C)C (stereo partly specified) | > 10 µg/mL | > 40 µg/mL | > 40 µg/mL | 2 µg/mL (≈ 3.43 µM) | > 8 µg/mL | > 40 µg/mL | > 40 µg/mL | > 40 µg/mL | > 10 µg/mL | > 40 µg/mL | > 40 µg/mL | 70 µg/mL (≈ 120 µM) | > 10 µg/mL |
| COCC(=O)NC(CCSC[C@H]1OC(n2ccc3c(N)ncnc32)[C@H](O)[C@@H]1O)C(=O)O (stereo partly specified) | > 400 µg/mL | > 400 µg/mL | > 400 µg/mL | > 400 µg/mL | > 200 µg/mL | > 400 µg/mL | > 400 µg/mL | > 400 µg/mL | > 400 µg/mL | > 400 µg/mL | > 400 µg/mL | > 400 µg/mL | > 20 µg/mL |
| CC(=O)NC(CCSC[C@H]1OC(n2ccc3c(N)ncnc32)[C@H](O)[C@@H]1O)C(=O)O (stereo partly specified) | > 200 µg/mL | > 400 µg/mL | > 400 µg/mL | 7 µg/mL (≈ 16.5 µM) | > 200 µg/mL | > 700 µg/mL | > 400 µg/mL | > 400 µg/mL | > 200 µg/mL | > 400 µg/mL | > 400 µg/mL | > 400 µg/mL | > 200 µg/mL |
| CCOC(=O)C(N)CCSC[C@H]1OC(n2ccc3c(N)ncnc32)[C@H](O)[C@@H]1O (stereo partly specified) | 20 µg/mL (≈ 48.6 µM) | > 100 µg/mL | 20 µg/mL (≈ 48.6 µM) | 7 µg/mL (≈ 17 µM) |  | > 70 µg/mL | > 100 µg/mL | 70 µg/mL (≈ 170 µM) | 20 µg/mL (≈ 48.6 µM) | > 100 µg/mL | 70 µg/mL (≈ 170 µM) | 20 µg/mL (≈ 48.6 µM) | 7 µg/mL (≈ 17 µM) |
| CCOC(=O)C(CCSC[C@H]1OC(n2ccc3c(N)ncnc32)[C@H](O)[C@@H]1O)NC(=O)COC (stereo partly specified) | > 100 µg/mL | > 400 µg/mL | > 70 µg/mL | 2 µg/mL (≈ 4.14 µM) |  | 300 µg/mL (≈ 620 µM) | 300 µg/mL (≈ 620 µM) | 150 µg/mL (≈ 310 µM) | > 100 µg/mL | > 400 µg/mL | > 200 µg/mL | > 150 µg/mL | 70 µg/mL (≈ 145 µM) |
| CCCOC(=O)C(CCSC[C@H]1OC(n2ccc3c(N)ncnc32)[C@H](O)[C@@H]1O)NC(=O)C(F)(F)F (stereo partly specified) | > 10 µg/mL | 70 µg/mL (≈ 134 µM) | > 20 µg/mL | 0.7 µg/mL (≈ 1.34 µM) |  | > 100 µg/mL | 70 µg/mL (≈ 134 µM) | > 100 µg/mL | > 10 µg/mL | > 200 µg/mL | > 100 µg/mL | > 150 µg/mL | > 10 µg/mL |
| Nc1ncnc2c(C3O[C@H](CSCCC(N)C(=O)O)[C@@H](O)[C@H]3O)n[nH]c12 (stereo partly specified) | 200 µg/mL (≈ 520 µM) | 30 µg/mL (≈ 78 µM) | 150 µg/mL (≈ 390 µM) | 100 µg/mL (≈ 260 µM) | > 4 µg/mL | > 100 µg/mL | > 100 µg/mL | > 400 µg/mL | 400 µg/mL (≈ 1040 µM) | > 100 µg/mL | > 400 µg/mL | > 100 µg/mL | 20 µg/mL (≈ 52 µM) |
| CC(C)OC(=O)C(CCSC[C@H]1OC(n2ccc3c(N)ncnc32)[C@H](O)[C@@H]1O)NC(=O)C(F)(F)F (stereo partly specified) | 20 µg/mL (≈ 38.3 µM) | > 50 µg/mL | 20 µg/mL (≈ 38.3 µM) | 1 µg/mL (≈ 1.92 µM) | > 4 µg/mL | > 50 µg/mL | > 70 µg/mL | > 100 µg/mL | 10 µg/mL (≈ 19.2 µM) | > 100 µg/mL | > 100 µg/mL | > 50 µg/mL | 5 µg/mL (≈ 9.59 µM) |
| CCCOC(=O)C(CCSC[C@H]1OC(n2ccc3c(N)ncnc32)[C@H](O)[C@@H]1O)NC(C)=O (stereo partly specified) | 40 µg/mL (≈ 85.6 µM) | 20 µg/mL (≈ 42.8 µM) | 20 µg/mL (≈ 42.8 µM) | 7 µg/mL (≈ 15 µM) | > 4 µg/mL | 15 µg/mL (≈ 32.1 µM) | > 40 µg/mL | 20 µg/mL (≈ 42.8 µM) | 20 µg/mL (≈ 42.8 µM) | > 40 µg/mL | 40 µg/mL (≈ 85.6 µM) | 20 µg/mL (≈ 42.8 µM) | 7 µg/mL (≈ 15 µM) |
| CC(C)OC(=O)C(N)CCSC[C@H]1OC(n2ccc3c(N)ncnc32)[C@H](O)[C@@H]1O (stereo partly specified) | > 10 µg/mL | 20 µg/mL (≈ 47 µM) | 7 µg/mL (≈ 16.5 µM) | 0.2 µg/mL (≈ 0.47 µM) | > 1.6 µg/mL | > 40 µg/mL | > 40 µg/mL | > 40 µg/mL | > 10 µg/mL | > 100 µg/mL | > 100 µg/mL | > 100 µg/mL | 7 µg/mL (≈ 16.5 µM) |
| Nc1ncnc2c1ncn2C[C@H](O)CO [(S)-DHPA] | > 400 µg/mL | 10 µg/mL (≈ 47.8 µM) | > 70 µg/mL | 40 µg/mL (≈ 191 µM) |  | 7 µg/mL (≈ 33.5 µM) | > 400 µg/mL | > 400 µg/mL | > 400 µg/mL | > 400 µg/mL | > 400 µg/mL | > 70 µg/mL | 20 µg/mL (≈ 95.6 µM) |
| Nc1ncnc2c1ccn2[C@@H]1O[C@H](CO)[C@@H](O)[C@H]1O [TUBERCIDIN] | > 0.2 µg/mL | 0.02 µg/mL (≈ 0.0751 µM) | 0.07 µg/mL (≈ 0.263 µM) | > 0.1 µg/mL |  | 0.02 µg/mL (≈ 0.0751 µM) | > 0.1 µg/mL | 0.2 µg/mL (≈ 0.751 µM) | 0.2 µg/mL (≈ 0.751 µM) | > 0.1 µg/mL | 0.2 µg/mL (≈ 0.751 µM) | 0.07 µg/mL (≈ 0.263 µM) | 0.07 µg/mL (≈ 0.263 µM) |
